Results on 14 compounds are retold here after patent publication US20020049223A1, “Quinoline and naphthyridine carboxylic acid antibacterials” (priority 1999, published 2002).

Holding throughout (assay): Assay B: in vitro antibacterial activity, broth microdilution MIC (NCCLS)
Holding throughout (format): cell-based
(In general: Dilution methods test growth across graded concentrations, often in twofold steps.)

One experiment has as its system Escherichia coli JUHL. To be noted: Table 2, Assay B, cation-adjusted Mueller Hinton broth, 35° C., 16 to 20 hr; code D = Escherichia coli JUHL; unit assumed. The method, then:
(§1) Assay B. Determination of Biological Activity In Vitro Assay of Antibacterial Activity
(§2) Representative compounds of the invention were assayed in vitro for antibacterial activity. The susceptibilities of aerobic, nonfastidious species were determined visually by broth microdilution as described by the National Committee for Clinical Laboratory Standards (NCCLS) (National Committee for Clinical Laboratory Standards. 1997. Methods for dilution antimicrobial susceptibility tests for bacteria that grow aerobically. Approved standard M7-A4. National Committee for Clinical Laboratory Standards. Wayne, Pa.). In brief, serial two-fold dilutions of test compounds were made in cation-adjusted Mueller Hinton broth at two-times the final concentration. Inocula were prepared from overnight cultures of test strains. Tests were inoculated with a suspension of bacteria in Mueller Hinton broth to achieve a final density of approximately 5×10^5 CFU/mL. Tests were incubated at 35° C. in ambient air for 16 to 20 hr. Minimum Inhibitory Concentrations (MICs) were determined as the lowest drug concentration completely inhibiting growth. Ciprofloxacin was included as a control. For testing S. pneumoniae, the cation-adjusted Mueller Hinton broth was supplemented with 3% lysed horse blood and the incubation period was extended to 20 to 24 hr. For testing H. influenzae, the cation-adjusted Mueller Hinton broth was supplemented with 5 g/L yeast extract, […] and 15 mg/L NAD and incubation was extended to 20 to 24 hr..

For experiment [1], the system named is Streptococcus pneumoniae ATCC 6303. To be noted: Table 2, Assay B, Mueller Hinton broth with 3% lysed horse blood, 20 to 24 hr; code F = Streptococcus pneumoniae ATCC 6303; unit assumed. The protocol: as §1, §2
In experiment [2] the test system is Staphylococcus aureus ATCC 6538P. To be noted: Table 2, Assay B, cation-adjusted Mueller Hinton broth, 35° C., 16 to 20 hr; code A = Staphylococcus aureus ATCC 6538P; unit assumed. The protocol:
as §1, §2

In experiment [3] the test system is Enterococcus faecalis PIU 1967. To be noted: Table 2, Assay B, cation-adjusted Mueller Hinton broth, 35° C., 16 to 20 hr; code B = Enterococcus faecalis PIU 1967; unit assumed. The method, then: as §1, §2
Experiment [4] deals with Haemophilus influenzae DILL AMP R. To be noted: Table 2, Assay B, Mueller Hinton broth with yeast extract, hematin and NAD, 20 to 24 hr; code E = Haemophilus influenzae DILL AMP R; unit assumed. The method, then: as §1, §2

Counter-ions that a name gives are not always drawn.

`COc1c(-c2cc3c(s2)CCCC3=NNC(C)=O)ccc2c(=O)c(C(=O)O)cn(C3CC3)c12` [Example 96, 7-((4E/Z)-4-(acetylhydrazono)-4,5,6,7-tetrahydro-1-benzothien-2-yl)-1-cyclopropyl-8-methoxy-4-oxo-1,4-dihydro-3-quinolinecarboxylic acid] yielded an Antibacterial Activity (MIC's), D in the experiment with Escherichia coli JUHL of 1 µg/mL. In experiment [1], this compound registered an Antibacterial Activity (MIC's), F of 0.03 µg/mL. Moreover, in experiment [2], the Antibacterial Activity (MIC's), A was less than 0.004 µg/mL. Also, the Antibacterial Activity (MIC's), B in experiment [3] came to 0.5 µg/mL. In addition, in experiment [4], the Antibacterial Activity (MIC's), E is 0.03 µg/mL.

For the compound `COc1c(-c2cc3c(s2)CCCC3NCc2ccccc2)ccc2c(=O)c(C(=O)O)cn(C3CC3)c12.Cl` (stereo not shown) [Example 97, 7-(4-(benzylamino)-4,5,6,7-tetrahydro-1-benzothien-2-yl)-1-cyclopropyl-8-methoxn-4-oxo-1,4-dihydro-3-quinolinecarboxylic acid hydrochloride], the Antibacterial Activity (MIC's), D in the experiment with Escherichia coli JUHL was 1 µg/mL. The compound further had an Antibacterial Activity (MIC's), F in experiment [1] of 0.5 µg/mL. This compound also yielded an Antibacterial Activity (MIC's), A in experiment [2] of 0.125 µg/mL. The compound also yielded an Antibacterial Activity (MIC's), B in experiment [3] of 0.5 µg/mL. The same compound returned an Antibacterial Activity (MIC's), E in experiment [4] of 0.25 µg/mL.

In the experiment on Escherichia coli JUHL, `O=C(O)c1cn(C2CC2)c2c(OC(F)F)c(-c3cc4c(s3)CCCC4O)ccc2c1=O` (stereo not shown) [Example 99, 1-cyclopropyl-8-(difluoromethoxy)-7-(4-hydroxy-4,5,6,7-tetrahydro-1-benzothien-2-yl)-4-oxo-1,4-dihydro-3-quinolinecarboxylic acid] yielded an Antibacterial Activity (MIC's), D of 0.25 µg/mL. Also, in experiment [1], the Antibacterial Activity (MIC's), F is 0.06 µg/mL. The compound also gave an Antibacterial Activity (MIC's), A in experiment [2] of 0.015 µg/mL. Besides, in experiment [3], the Antibacterial Activity (MIC's), B was 0.125 µg/mL. Further, the Antibacterial Activity (MIC's), E in experiment [4] was 0.015 µg/mL.

In the case of `COc1c(-c2cc3c(s2)CCCC3=NNC2=NCCN2)ccc2c(=O)c(C(=O)O)cn(C3CC3)c12` [Example 100, 1-cyclopropyl-7-((4E/Z)-4-(4,5-dihydro-1H-imidazol-2-ylhydrazono)-4,5,6,7-tetrahydro-1-benzothien-2-yl)-8-methoxv-4-oxo-1,4-dihydro-3-quinolinecarboxylic acid], the Antibacterial Activity (MIC's), D in the experiment on Escherichia coli JUHL turned out to be 0.25 µg/mL. For the same compound, the Antibacterial Activity (MIC's), F in experiment [1] stood at 0.03 µg/mL. The same compound registered an Antibacterial Activity (MIC's), A in experiment [2] of 0.06 µg/mL. The Antibacterial Activity (MIC's), B in experiment [3] worked out at 0.5 µg/mL. In addition, in experiment [4], the Antibacterial Activity (MIC's), E stood at 0.125 µg/mL.

`Cl.NC1CCCc2sc(-c3ccc4c(=O)c(C(=O)O)cn(C5CC5)c4c3OC(F)F)cc21` (stereo not shown) [Example 101, 7-(4-amino-4,5,6,7-tetrahydro-1-benzothien-2-yl)-1-cyclopropyl-8-(difluoromethoxy)-4-oxo-1,4-dihydro-3-quinolinecarboxylic acid hydrochloride]: the Antibacterial Activity (MIC's), D in the experiment on Escherichia coli JUHL turned out to be 0.125 µg/mL. The Antibacterial Activity (MIC's), F in experiment [1] came to 0.03 µg/mL. In experiment [2], the Antibacterial Activity (MIC's), A was 0.03 µg/mL. The Antibacterial Activity (MIC's), B in experiment [3] came out at 0.125 µg/mL. The compound further yielded an Antibacterial Activity (MIC's), E in experiment [4] of 0.015 µg/mL.

`COc1c(-c2cc3c(s2)S(=O)(=O)N(C)CC3O)ccc2c(=O)c(C(=O)O)cn(C3CC3)c12` (stereo not shown) [Example 102, 1-cyclopropyl-7-(4-hydroxy-2-methyl-1,1-dioxido-3,4-dihydro-2H-thieno[3,2-e][1,2]thiazin-6-yl)-8-methoxy-4-oxo-1,4-dihydro-3-quinolinecarboxylic acid] came in with an Antibacterial Activity (MIC's), D in the experiment with Escherichia coli JUHL of 8 µg/mL. In addition, the Antibacterial Activity (MIC's), F in experiment [1] was found to be 0.5 µg/mL. In addition, the Antibacterial Activity (MIC's), A in experiment [2] amounted to 0.25 µg/mL. The same compound yielded an Antibacterial Activity (MIC's), B in experiment [3] of 1 µg/mL. In experiment [4], this compound had an Antibacterial Activity (MIC's), E of 0.03 µg/mL.

In the experiment with Escherichia coli JUHL, `COc1c(-c2cc3c(s2)CCCC3NCc2cccc(F)c2)ccc2c(=O)c(C(=O)O)cn(C3CC3)c12` (stereo not shown) [Example 104, 1-cyclopropyl-7-(4-((3-fluorobenzyl)amino)-4,5,6,7-tetrahydro-1-benzothien-2-yl)-8-methoxy-4-oxo-1,4-dihydro-3-quinolinecarboxylic acid hydrochloride] registered an Antibacterial Activity (MIC's), D of 2 µg/mL. The same compound displayed an Antibacterial Activity (MIC's), F in experiment [1] of 0.5 µg/mL. For the same compound, the Antibacterial Activity (MIC's), A in experiment [2] turned out to be 0.25 µg/mL. In experiment [3], this compound gave an Antibacterial Activity (MIC's), B of 1 µg/mL. The Antibacterial Activity (MIC's), E in experiment [4] came out at 0.25 µg/mL.

`COc1c(-c2cc3c(s2)CCCC3=NN(C)C(N)=S)ccc2c(=O)c(C(=O)O)cn(C3CC3)c12` [Example 105, 7-((4E/Z)-4-[(aminocarbothioyl)(methyl)hydrazono)-4,5,6,7-tetrahydro-1-benzothien-2-yl)-1-cyclopropyl-8-methoxy-4-oxo-1 4-dihydro-3-quinolinecarboxylic acid] returned an Antibacterial Activity (MIC's), D in the experiment with Escherichia coli JUHL of 1 µg/mL. The same compound yielded an Antibacterial Activity (MIC's), F in experiment [1] of 0.03 µg/mL. For the same compound, the Antibacterial Activity (MIC's), A in experiment [2] was determined as 0.03 µg/mL. The Antibacterial Activity (MIC's), B in experiment [3] was 0.25 µg/mL. The compound also showed an Antibacterial Activity (MIC's), E in experiment [4] of 0.06 µg/mL.

Take `COc1c(-c2cc3c(s2)CCC(C)C3=O)ccc2c(=O)c(C(=O)O)cn(C3CC3)c12` (stereo not shown) [Example 106, 1-cyclopropyl-8-methoxy-7-(5-methyl-4-oxo-4,5,6,7-tetrahydro-1-benzothien-2-yl)-4-oxo-1,4-dihydro-3-quinolinecarboxylic acid]: in the experiment with Escherichia coli JUHL, the Antibacterial Activity (MIC's), D worked out at 0.5 µg/mL. This compound showed an Antibacterial Activity (MIC's), F in experiment [1] of 0.125 µg/mL. Besides, the Antibacterial Activity (MIC's), A in experiment [2] is 0.08 µg/mL. The compound also registered an Antibacterial Activity (MIC's), B in experiment [3] of 0.125 µg/mL. Besides, in experiment [4], the Antibacterial Activity (MIC's), E worked out at 0.06 µg/mL.

As for `CNC1CCCc2sc(-c3ccc4c(=O)c(C(=O)O)cn(C5CC5)c4c3OC(F)F)cc21` (stereo not shown) [Example 107, 1-cyclopropyl-8-(difluoromethoxy)-7-(4-(methylamino)-4,5,6,7-tetrahydro-1-benzothien-2-yl)-4-oxo-1,4-dihydro-3-quinolinecarboxylic acid hydrochloride], in the experiment with Escherichia coli JUHL, the Antibacterial Activity (MIC's), D was found to be 0.25 µg/mL. For the same compound, in experiment [1], the Antibacterial Activity (MIC's), F came out at 0.06 µg/mL. In addition, in experiment [2], the Antibacterial Activity (MIC's), A is 0.06 µg/mL. Besides, the Antibacterial Activity (MIC's), B in experiment [3] stood at 0.5 µg/mL. Besides, in experiment [4], the Antibacterial Activity (MIC's), E came to 0.06 µg/mL.

In the case of `CNC1CCCc2sc(-c3nc4c(cc3F)c(=O)c(C(=O)O)cn4C3CC3)cc21` (stereo not shown) [Example 108, 1-cyclopropyl-6-fluoro-7-(4-(methylamino)-4,5,6,7-tetrahydro-1-benzothien-2-yl)-4-oxo-1,4-dihydro[1,8]naphthyridine-3-carboxylic acid hydrochloride], the Antibacterial Activity (MIC's), D in the experiment with Escherichia coli JUHL worked out at 0.03 µg/mL. In experiment [1], this compound displayed an Antibacterial Activity (MIC's), F of 0.25 µg/mL. This compound also yielded an Antibacterial Activity (MIC's), A in experiment [2] of 0.015 µg/mL. Further, the Antibacterial Activity (MIC's), B in experiment [3] is 1 µg/mL. For the same compound, in experiment [4], the Antibacterial Activity (MIC's), E was found to be 0.008 µg/mL.

In the experiment on Escherichia coli JUHL, `COc1c(-c2cc3c(s2)S(=O)(=O)N(C)CC3N)ccc2c(=O)c(C(=O)O)cn(C3CC3)c12.Cl` (stereo not shown) [Example 109, 7-(4-amino-2-methyl-1,1-dioxido-3,4-dihydro-2H-thieno[3,2-e][1,2]thiazin-6-yl)-1-cyclopropyl-8-methoxy-4-oxo-1,4-dihydro-3-quinolinecarboxylic acid hydrochloride] had an Antibacterial Activity (MIC's), D of 8 µg/mL. For the same compound, in experiment [1], the Antibacterial Activity (MIC's), F turned out to be 0.5 µg/mL. Besides, the Antibacterial Activity (MIC's), A in experiment [2] amounted to 0.125 µg/mL. Moreover, the Antibacterial Activity (MIC's), B in experiment [3] is 2 µg/mL. The compound further came in with an Antibacterial Activity (MIC's), E in experiment [4] of 0.125 µg/mL.

`COc1c(-c2cc3c(s2)CCCC3CO)ccc2c(=O)c(C(=O)O)cn(C3CC3)c12` (stereo not shown) [Example 110, 1-cyclopropyl-7-(4-(hydroxymethyl)-4,5,6,7-tetrahydro-1-benzothien-2-yl)-8-methoxy-4-oxo-1,4-dihydro-3-quinolinecarboxylic acid] displayed an Antibacterial Activity (MIC's), D in the experiment with Escherichia coli JUHL of 0.25 µg/mL. The same compound gave an Antibacterial Activity (MIC's), F in experiment [1] of 0.06 µg/mL. The Antibacterial Activity (MIC's), A in experiment [2] amounted to 0.004 µg/mL. Besides, the Antibacterial Activity (MIC's), B in experiment [3] worked out at 0.06 µg/mL. In experiment [4], this compound yielded an Antibacterial Activity (MIC's), E of 0.015 µg/mL.

For the compound `CNC1CCc2sc(-c3ccc4c(=O)c(C(=O)O)cn(C5CC5)c4c3OC)cc2C1.Cl` (stereo not shown) [Example 125, 1-cyclopropyl-8-methoxy-7-(5-(methylamino)-4,5,6,7-tetrahydro-1-benzothien-2-yl)-4-oxo-1,4-dihydro-3-quinolinecarboxylic acid hydrochloride], the Antibacterial Activity (MIC's), D with Escherichia coli JUHL came out at 0.125 µg/mL. Besides, in experiment [1], the Antibacterial Activity (MIC's), F came out at 0.03 µg/mL. For the same compound, the Antibacterial Activity (MIC's), A in experiment [2] is 0.004 µg/mL. For the same compound, the Antibacterial Activity (MIC's), B in experiment [3] amounted to 0.25 µg/mL. In experiment [4], this compound registered an Antibacterial Activity (MIC's), E of 0.03 µg/mL.
